Broadly, the IC50 is the concentration needed to halve the response being measured. By inhibition is commonly meant the relative decrease from the control value, in per cent.

Consider seven compounds from publication PMC8667043, “First-in-Class Inhibitors of the Ribosomal Oxygenase MINA53” (Journal of Medicinal Chemistry, 2021).

For one experiment, the target named is T1, NO66 (Homo sapiens, UniProt Q9H6W3).
T1 construct: histidine tag (TEV-cleavable) (cleaved yes); made in house; host or cells: E. coli BL21(DE3)-R3-pRARE2
T1 sequence (Q9H6W3 183-641): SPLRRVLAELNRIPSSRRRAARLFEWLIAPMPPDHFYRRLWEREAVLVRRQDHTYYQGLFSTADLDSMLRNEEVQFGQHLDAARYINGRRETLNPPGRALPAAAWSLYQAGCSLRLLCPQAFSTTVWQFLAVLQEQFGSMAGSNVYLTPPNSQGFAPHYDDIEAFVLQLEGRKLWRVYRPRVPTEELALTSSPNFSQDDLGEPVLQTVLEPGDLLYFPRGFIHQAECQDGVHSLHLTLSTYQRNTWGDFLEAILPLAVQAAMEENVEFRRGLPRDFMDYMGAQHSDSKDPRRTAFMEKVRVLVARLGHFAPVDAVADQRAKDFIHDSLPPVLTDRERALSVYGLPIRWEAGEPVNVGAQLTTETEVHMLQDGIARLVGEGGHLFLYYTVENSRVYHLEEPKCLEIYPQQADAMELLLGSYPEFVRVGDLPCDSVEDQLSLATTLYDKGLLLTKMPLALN
The experiment is described as follows: NO66 MS (RapidFire) hydroxylation inhibition assay, Rpl8 peptide. The class given is biochemical.

Another experiment concerns U-87MG malignant glioma. The experiment is described as follows: MTT cell viability assay. Conditions: 72, 96, 120 h, 10 to 100 μM, 10′ to a similar extent as 10. The class given is cell-based, human. The method, then:
(§1) Human commercially available established cancer cell lines HT-29 colon carcinoma (ATCC, HTB-38), U-87MG glioblastoma (ATCC, HTB-14), and MNK-45 gastric cancer (a gift from Dr. M. Broggini, Mario Negri Institute) were cultured in RPMI medium (Euroclone, Milan, IT) supplemented with 10% inactivated fetal bovine serum (HyClone, Thermo Scientific, South Logan, UT), 1% L-glutamine (Euroclone), and 100 μg/mL penicillin/streptomycin (Euroclone). HEK293T and HeLa cells were cultured in Dulbecco’s Modified Eagle Medium (DMEM, Gibco) supplemented with 10% (v/v) fetal bovine serum (FBS, Sigma) and 100 international units/mL (IU/mL) penicillin and 100 μg/mL streptomycin (Gibco). The cells were routinely tested for mycoplasma contamination and STR-authenticated.
(§2) Twenty-four hours following seeding, exponentially growing cells were treated with the different compounds at concentrations ranging from 10 to 100 μM for 72–120 h. Aqueous DMSO (0.5%, v/v) was used as a control (untreated). Cell viability was determined by the 3-(4,5-dimethylthiazol-2-yl)-2,5-diphenyltetrazolium bromide (MTT) colorimetric assay (Sigma-Aldrich). In summary, exponentially growing cancer cells were seeded in sextuplicate in 96-well culture plates (1.5 × 10^3 cells/well). After 24 h, the compounds were added at concentrations ranging from 10 to 100 μM. The effect of compounds on cancer cell proliferation was assessed by measuring the MTT dye absorbance of the cells as reported.[52] For combination treatments, the cells were treated with each of three compounds, either alone or in combination with doxorubicin. In particular, U-87MG cells were treated with doxorubicin alone or in combination with different MINA53 inhibitors for 24 h. The effect of different compounds or combinations (drug concentration ratio 1:20, doxorubicin: compound) on U-87MG cancer cell viability was assessed by measuring the MTT dye absorbance of cells. The interaction between doxorubicin (Doxo) and different compounds was evaluated based on the combination index (CI) using the CI equation through CalcuSyn software (Biosoft, Cambridge, U.K.). Synergism CI < 0.9, additivity 0.9 < CI < 1.1, antagonism CI > 1.1.
On the technique in general: Tetrazolium assays rely on reduction of a dye to a coloured formazan, in cell work by metabolically active cells.

For a further experiment, the system named is MNK-45 gastric carcinoma. The experiment is described as follows: MTT cell viability assay. The class given is cell-based, human. Conditions: 72, 96, 120 h, 10 to 100 μM, 10′ to a similar extent as 10. As to the method: as §1, §2
The subject of the next experiment is HT-29 colon carcinoma. The experiment is described as follows: MTT cell viability assay. Particulars: 72, 96, 120 h, 10 to 100 μM, 10′ to a similar extent as 10. The experiment is classed as cell-based, human. As to the method:
as §1, §2

The target in another experiment is T2, MINA53 (Homo sapiens, UniProt Q8IUF8).
T2 construct: MINA53 (Met1-Val464 and Ala26-Val464); histidine tag (TEV-cleavable) (cleaved yes); made in house; host or cells: E. coli BL21(DE3)-R3-pRARE2
T2 sequence (Q8IUF8 1-464 isoform Q8IUF8-4): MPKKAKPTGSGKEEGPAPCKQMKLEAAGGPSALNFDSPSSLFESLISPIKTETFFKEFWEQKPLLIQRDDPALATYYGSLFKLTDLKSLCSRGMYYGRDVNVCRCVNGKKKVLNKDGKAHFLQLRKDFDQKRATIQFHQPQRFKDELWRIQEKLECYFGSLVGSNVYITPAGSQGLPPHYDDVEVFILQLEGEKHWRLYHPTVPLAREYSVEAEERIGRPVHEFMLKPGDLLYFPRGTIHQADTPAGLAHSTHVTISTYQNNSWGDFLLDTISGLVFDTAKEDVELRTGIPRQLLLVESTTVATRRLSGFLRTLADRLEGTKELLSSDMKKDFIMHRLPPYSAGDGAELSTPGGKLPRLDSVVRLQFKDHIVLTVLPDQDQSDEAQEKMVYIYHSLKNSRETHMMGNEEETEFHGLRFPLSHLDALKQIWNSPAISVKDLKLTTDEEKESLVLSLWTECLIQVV
The experiment is described as follows: MINA53 MS (RapidFire) hydroxylation inhibition assay, Rpl27a peptide. The class given is biochemical.

The next experiment addresses T3, PCAF (Homo sapiens, UniProt Q92831).
T3 construct: purchased Reaction Biology Corporation, Malvern, PA, USA
The experiment is described as follows: HotSpot KAT assay. The class given is biochemical. Conditions: means ± SD of three experiments, read-out: Residual Enzymatic Activity (%) PCAF. As to the method: (§3) The ef fects of 1-13 on th e histone lysine acetyltr a nsferas e activity (KAT ) o f p300 and PCAF were
(§4) determined using the HotSpot KAT assay ( Reaction Biology Corporation, Malvern, PA, USA)
(§5) according to the supplier’s procedure. In brief, recombinant form s of catal ytic domains of PCAF
(§6) NaCl, 0.1 mM EDTA, 1 mM DTT, 1 mM PMSF, 1% (v/v) DMSO) fo r 1 h at 30 °C in the presenc e
(§7) or absence of various concentrations of the inhibitors. Histone H3 acetyl ation was assessed by
(§8) liquid scintillation counting using a Tri-Carb 2800TR Liquid Scintillation Analyzer
(§9) (PerkinElmer). Assays at fixed con centration doses were performed in triplicate and analyzed
(§10) using Excel and GraphPad Prism 6.0 software (GraphPad Software Inc., San Diego, CA).

Another experiment deals with T4, p300 (Homo sapiens, UniProt Q09472).
T4 construct: purchased Reaction Biology Corporation, Malvern, PA, USA
T4 sequence (Q09472 1284-1673): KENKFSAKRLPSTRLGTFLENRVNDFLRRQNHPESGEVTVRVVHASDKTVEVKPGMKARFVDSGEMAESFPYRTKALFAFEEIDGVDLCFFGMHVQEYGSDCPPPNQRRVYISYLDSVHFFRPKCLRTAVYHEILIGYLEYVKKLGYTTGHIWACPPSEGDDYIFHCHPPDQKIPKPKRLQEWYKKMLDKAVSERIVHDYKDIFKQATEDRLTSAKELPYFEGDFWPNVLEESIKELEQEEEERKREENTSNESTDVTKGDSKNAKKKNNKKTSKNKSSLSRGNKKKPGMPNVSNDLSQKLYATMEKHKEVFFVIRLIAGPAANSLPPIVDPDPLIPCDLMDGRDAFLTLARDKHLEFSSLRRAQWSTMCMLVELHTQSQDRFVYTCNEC
The experiment is described as follows: HotSpot KAT assay. The experiment is classed as biochemical. Particulars: read-out: Residual Enzymatic Activity (%) p300. As to the method: as §3, §4, §5, §6, §7, §8, §9, §10

The next experiment has as its system U-87MG cells. The experiment can be described thus: MTT cell viability, alone or in combination with doxorubicin; combination index. The class given is cell-based, human. Conditions: 24 h. As to the method: as §2
The mark [1] stands for this setting: NO66 (Ser183-Asn641), means ± 95% confidence, n = 3, read-out: IC50 value, NO66 (assay validation, Figure S7).
Setting [2] is: Table S12, read-out: NO66 IC50 (Table S12).
The mark [3] stands for this setting: MINA53 (Met1-Val464), means ± 95% confidence, n = 3, read-out: IC50 value, MINA53 (assay validation, Figure S7).

“Also recorded” adds a separate entry of the source. Where two headings read alike, the source gives them in different places.

T3 sequence (Q92831 492-658): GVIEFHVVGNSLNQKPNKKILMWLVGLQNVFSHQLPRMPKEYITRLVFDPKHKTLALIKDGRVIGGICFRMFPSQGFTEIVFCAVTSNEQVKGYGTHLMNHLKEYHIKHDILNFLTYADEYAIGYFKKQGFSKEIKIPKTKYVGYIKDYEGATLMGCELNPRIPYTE

As for `O=C(O)c1ccnc(C(=O)O)c1` [2,4-PDCA, pyridine-2,4-dicarboxylate, reference compound], the results for the IC50 at NO66 (setting [1]) and at NO66 (setting [2]) were 0.11 µM and 0.168 µM, respectively.
Take `COC(=O)c1cnc(SCCCc2ccccc2)[nH]c1=O` [10′, Methyl 2-((3-phenylpropyl)thio)-3,4-dihydro-4-oxopyrimidine-5-carboxylate]: the half-maximal inhibitory concentration (IC50) on NO66 (setting [2]) was 20.1 µM; at MINA53 (Table S12, read-out: MINA53 IC50 (Table S12)) it was > 100 µM. Further, the “effect on cell viability, U-87MG” value with U-87MG malignant glioma is reported as “reduced the cell viability”. Besides, the “effect on cell viability, MNK-45” value in the experiment with MNK-45 gastric carcinoma is “reduced the cell viability”. Further, in the experiment with HT-29 colon carcinoma, the “effect on cell viability, HT-29” value is recorded as “reduced the cell viability”.
`CCCCCCCCCCCCCCCc1cccc(O)c1C(=O)O` [Anacardic Acid (AA), reference compound]: the remaining activity at 100 µM is 4.7 ± 0.3% on PCAF and 0.9 ± 0.01% on p300.
Take `O=C(O)CNC(=O)C(=O)O` [NOG, N-oxalylglycine, reference compound]: the IC50 turned out to be 3.5 µM on NO66 (setting [1]) and 1.8 µM at MINA53 (setting [3]).
`O=C(O)c1ccc(O)c2ncccc12` [IOX-1, reference compound]: the half-inhibitory concentration (IC50) on NO66 (setting [1]) came out at 38.5 µM; at MINA53 (setting [3]), 102 µM.
Consider `O=C(O)CCNc1cc(N2CCc3ccccc3CC2)nc(-c2ccccn2)n1` [GSK-J1, reference compound], for which the “inhibition of NO66 at 100 μM” value at NO66 (at 100 μM) is given as “did not show significant inhibition”. At NO66 (read-out: inhibition of NO66 at 100 μM), the inhibition at 100 µM came out at 30%. Moreover, on MINA53 (at 100 μM), the “inhibition of MINA53 at 100 μM” value was “did not show significant inhibition; also recorded: No inhibition”.
In the case of `COc1cccc2c1C(=O)c1c(O)c3c(c(O)c1C2=O)C[C@@](O)(C(=O)CO)C[C@@H]3O[C@H]1C[C@H](N)[C@H](O)[C@H](C)O1` [doxorubicin, reference compound], the “cell viability, single compound treatment” value in the experiment with U-87MG cells is listed as “reduced cell viability in a dose-dependent manner”.
